Results from patent publication US20070082920A1, “NAD+-dependent DNA ligase inhibitors” (priority 2005, published 2007).

Key:
[1] = test system: Moraxella catterhalis ATCC 25238; test: MIC, broth microdilution (CLSI), M. catarrhalis; assay type: cell-based
Method: (§1) The compounds of Formulas 1-VIII were evaluated as inhibitors of NAD+-dependent DNA ligase inhibitors. Their antimicrobial activity was evaluated against bacteria using the broth microdilution method as described by Clinical Laboratory Standards Institute (formerly NCCLS). Activity was assessed against the following bacterial strains: Staphylococcus aureus ATCC 29213, Streptococcus pneumoniae ATCC 49619, Escherichia coli ATCC 25922, E. coli CGSC 5633 (ToIC mutant), Haemophilus influenzae ATCC 49766, Streptococcus pyogenes ATCC 19615, Moraxella catterhalis ATCC 25238, Enterococcus faecalis ATCC 29212. The lowest concentration of compound which inhibited visual growth of each bacterium, the minimum inhibitory concentration (MIC), was determined.

[2] = test system: E. coli CGSC 5633 (ToIC mutant); test: MIC, broth microdilution (CLSI), E. coli CGSC 5633; assay type: cell-based, Escherichia coli; parameters: unit not given beside the values
Method: as §1

[3] = test system: Enterococcus faecalis ATCC 29212; test: MIC, broth microdilution (CLSI), E. faecalis; assay type: cell-based; parameters: unit not given here
Method: as §1

[4] = test system: Haemophilus influenzae ATCC 49766; test: MIC, broth microdilution (CLSI), H. influenzae; assay type: cell-based; parameters: unit not given beside the values
Method: as §1

[5] = test system: Streptococcus pneumoniae ATCC 49619; test: MIC, broth microdilution (CLSI), S. pneumoniae; assay type: cell-based
Method: as §1

[6] = test system: Escherichia coli ATCC 25922; test: MIC, broth microdilution (CLSI), E. coli ATCC 25922; assay type: cell-based; parameters: unit not given here
Method: as §1

[7] = test system: Staphylococcus aureus ATCC 29213; test: MIC, broth microdilution (CLSI), S. aureus; assay type: cell-based; conditions: lowest concentration inhibiting visual growth
Method: as §1

[8] = test system: Streptococcus pyogenes ATCC 19615; test: MIC, broth microdilution (CLSI), S. pyogenes; assay type: cell-based
Method: as §1

[9] = Acute toxicity, Alamar blue cell viability, HepG2; assay type: cell-based; conditions: human
Method: (§2) Acute toxicity was assessed against two mammalian cell lines, HepG2 (human hepatocyte) and NIH 3T3 (mouse fibroblast). Cell viability was measured by an in vitro assay using Alamar blue. The concentration of compound which inhibited 50% of the cell growth (LC50) was determined.

[10] = Acute toxicity, Alamar blue cell viability, NIH 3T3; assay type: cell-based; conditions: mouse
Method: as §2

[11] = HepG2 cells, Alamar blue, 50% inhibition of cell growth, read-out: Acute Tox LC50 μM/ HepG2
[12] = NIH 3T3 cells, Alamar blue, 50% inhibition of cell growth, read-out: Acute Tox LC50 μM/ NIH-3T3

| Structure (SMILES) | MIC M. catarrhalis [1] | MIC E. coli CGSC 5633 [2] | MIC E. faecalis [3] | MIC H. influenzae [4] | MIC S. pneumoniae [5] | MIC E. coli ATCC 25922 [6] | MIC S. aureus ATCC 29213 [7] | MIC S. pyogenes [8] | CC50 [9] | CC50 [10] | CC50 [9, 11] | CC50 [10, 12] |
| --- | --- | --- | --- | --- | --- | --- | --- | --- | --- | --- | --- | --- |
| Cc1cc(NCc2ccc(F)cc2C(F)(F)F)nc2nc(N)nc(N)c12 [III-j] | 4 | 0.25 | 1 | 16 | 1 | 32 | 16 | 4 | – | – | – | – |
| COc1cc(CN(C)c2nc3nc(N)nc(N)c3c3c2CCCC3)cc(OC)c1 [VII-e] | 4 | 1 | <0.1250 | 16 | 0.5 | 64 | 32 | 2 | – | – | – | – |
| Nc1nc(N)c2c3c(c(NCc4cc(F)cc(F)c4)nc2n1)CCCC3 [VII-d] | 16 | – | 8 | 32 | 8 | 64 | 32 | 8 | – | – | – | – |
| Cc1cc(NCc2ccc(F)cc2)nc2nc(N)nc(N)c12 [III-a] | 8 | 0.25 | 4 | 2 | 64 | 32 | 32 | 2 | 24 µM | 8.14 µM | – | – |
| Cc1cc(NCc2ccc(C(F)(F)F)cc2)nc2nc(N)nc(N)c12 [III-c] | 8 | 0.25 | 4 | 16 | 4 | 16 | 16 | 4 | 22.8 µM | 11.2 µM | – | – |
| Cc1cc(NCc2cc(F)cc(C(F)(F)F)c2)nc2nc(N)nc(N)c12 [III-b, 2,4-diamino-5-methyl-7-[(3-fluoro-5-trifluoromethylbenzyl)amino]-pyrido[2,3-d]pyrimidine] | 8 | <0.125 | 0.5 | 32 | 1 | 16 | 16 | 4 | 20.9 µM | 8.34 µM | – | – |
| Cc1cc(NCc2cc(F)c(F)c(F)c2)nc2nc([N+](=O)[O-])nc([N+](=O)[O-])c12 [VIII-a] | 2 | 4 | 16 | 32 | 16 | 64 | 8 | 8 | – | – | > 30.8 µM | 22.2 µM |
| Cc1cc(NCc2cc(C(F)(F)F)ccc2F)nc2nc(N)nc(N)c12 [III-k] | 16 | – | 0.5 | 32 | 2 | 32 | 16 | 16 | – | – | – | – |
| COc1cc(CN(C)c2nc3nc(N)nc(N)c3c(C)c2Cc2ccccc2)cc(OC)c1 [II-a, 2,4-diamino-5-methyl-6-benzyl-7-[(3,5-dimethoxybenzyl)methylamino]-pyrido[2,3-d]pyrimidine] | 4 | <0.125 | <0.125 | >128 | 0.125 | >128 | 4 | 4 | 12.8 µM | 5.57 µM | – | – |
| COc1ccc(CN(C)c2cc(C)c3c(N)nc(N)nc3n2)cc1OC [IV-b] | 8 | 0.125 | – | 16 | 2 | 64 | 64 | – | > 28.2 µM | 13.2 µM | – | – |
| Cc1c(C(C)C)c(NCc2cc(F)cc(C(F)(F)F)c2)nc2nc(N)nc(N)c12 [II-f] | 4 | – | 2 | 32 | 8 | 128 | 8 | 8 | – | – | – | – |
| Cc1cc(NCc2cc(F)cc(C(F)(F)F)c2)nc2nc([N+](=O)[O-])nc([N+](=O)[O-])c12 [VIII-b] | 4 | 2 | 4 | 64 | 8 | 64 | 8 | 4 | – | – | > 16.4 µM | 12.1 µM |
| Cc1cc(NCc2cc(C(F)(F)F)cc(C(F)(F)F)c2)nc2nc(N)nc(N)c12 [III-d] | 4 | 1 | 1 | 16 | 2 | 16 | 16 | 2 | 19.5 µM | 7.72 µM | – | – |
| Nc1nc(N)c2c3c(c(N4Cc5ccccc5C4)nc2n1)CCCC3 [VII-c] | 4 | – | 1 | >128 | 8 | >128 | 16 | 16 | – | – | – | – |
| COc1cc(CN(C)c2nc3nc(N)nc(N)c3c(C)c2C2CCCC2)cc(OC)c1 [II-h] | 1 | <0.125 | <0.125 | 4 | 0.5 | 32 | 4 | 1 | 17.5 µM | 3.26 µM | – | – |
| Cc1cc(NCc2ccc(C(F)(F)F)cc2F)nc2nc(N)nc(N)c12 [III-h] | 4 | 0.5 | 4 | 16 | 4 | 16 | 16 | 4 | – | – | – | – |
| Cc1cc(NCc2ccc3c(c2)OCO3)nc2nc(N)nc(N)c12 [III-m] | 16 | 0.5 | 2 | 8 | 2 | 64 | 64 | 8 | – | – | – | – |
| Cc1cc(NCc2cccc(C(F)(F)F)c2F)nc2nc(N)nc(N)c12 [III-g] | 4 | 0.5 | 2 | 32 | 2 | 16 | 16 | 4 | – | – | – | – |
